Where two headings read alike, the source gives them in different places. One block for each molecule: values may come before it. Where a SMILES comes first, the peptide text is derived from it. Bridges are numbered along the chain shown (N, C = ends). [ ]: non-standard residue; d: D form. PEG12 = NCCOCCOCCOCCOCCOCCOCCOCCOCCOCCOCCOCCOCCC(=O)O; NMePhe(3-Cl) = CN[C@@H](Cc1cccc(Cl)c1)C(=O)O; NMeW = CN[C@@H](Cc1c[nH]c2ccccc12)C(=O)O; NMeY = CN[C@@H](Cc1ccc(O)cc1)C(=O)O; NMeF = CN[C@@H](Cc1ccccc1)C(=O)O; PEG4 = NCCOCCOCCOCCOCCC(=O)O; Abu = CC[C@H](N)C(=O)O; Dap = NC[C@H](N)C(=O)O
Target: transferrin receptor (hTfR) (Homo sapiens, UniProt P02786)
Test: Intermolecular interaction evaluation test between transferrin receptor (hTfR) and peptide by surface plasmon resonance (SPR)
Type: binding
Outline: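 Receptor was Ni-captured and EDC/NHS-fixed on an NTA chip; running buffer HEPES pH 8.0 with NaCl, Tween 20, BSA and 1.0% DMSO.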

[1] = SPR, hTfR No. 894 variants with PEG12c linker (Table 2), read-out: KD
[2] = surface plasmon resonance, hTfR, read-out: KD value for hTfR by SPR (class symbol)
[3] = hTfR binding by SPR, hTfR No. 894 variant peptides, linker-added peptides and payload conjugates (Table 2), read-out: KD value obtained from the SPR measurement
[4] = surface plasmon resonance, peptide vs hTfR, read-out: KD value, hTfR binding by SPR (class symbol)
[5] = SPR, peptides, linker-added peptides and FITC conjugates, Patent ID 203-230, read-out: KD

Chain of transferrin receptor (hTfR) (P02786 whole entry): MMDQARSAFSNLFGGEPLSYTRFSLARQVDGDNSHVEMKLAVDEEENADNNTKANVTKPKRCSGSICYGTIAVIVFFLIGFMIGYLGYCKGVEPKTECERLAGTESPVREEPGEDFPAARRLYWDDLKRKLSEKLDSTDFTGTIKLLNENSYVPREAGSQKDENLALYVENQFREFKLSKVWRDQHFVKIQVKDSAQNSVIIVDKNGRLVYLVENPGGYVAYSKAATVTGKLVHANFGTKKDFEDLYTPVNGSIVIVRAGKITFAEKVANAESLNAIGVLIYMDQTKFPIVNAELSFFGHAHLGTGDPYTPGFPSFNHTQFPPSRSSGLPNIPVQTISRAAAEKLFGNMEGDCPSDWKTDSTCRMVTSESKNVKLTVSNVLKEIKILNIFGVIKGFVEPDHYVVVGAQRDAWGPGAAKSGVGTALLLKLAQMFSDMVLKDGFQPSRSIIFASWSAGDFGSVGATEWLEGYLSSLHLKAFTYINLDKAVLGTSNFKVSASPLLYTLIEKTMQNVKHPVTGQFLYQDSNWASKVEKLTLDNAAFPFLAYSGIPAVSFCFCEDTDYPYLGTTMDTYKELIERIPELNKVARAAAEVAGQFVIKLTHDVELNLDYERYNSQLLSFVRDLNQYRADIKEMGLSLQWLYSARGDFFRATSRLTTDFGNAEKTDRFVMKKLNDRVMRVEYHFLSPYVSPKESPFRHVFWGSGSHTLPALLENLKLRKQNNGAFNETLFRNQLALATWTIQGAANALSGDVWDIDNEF

SMILES: CC[C@H](C)[C@@H]1NC(=O)[C@H](Cc2ccc(OC)cc2)NC(=O)[C@H](Cc2ccc(O)cc2)NC(=O)[C@H](CC(N)=O)NC(=O)[C@H](Cc2c[nH]c3ccccc23)N(C)C(=O)[C@H](C(C)C)NC(=O)[C@H](Cc2cccc(Cl)c2)N(C)C(=O)[C@H](CC(=O)O)NC(=O)[C@H](C)NC(=O)CSC[C@@H](C(=O)NCC(=O)NCC(=O)NCC(=O)NCC(=O)N[C@@H](CO)C(=O)N[C@@H](CO)C(=O)N[C@@H](CS)C(N)=O)NC(=O)[C@H](Cc2ccc(O)cc2)N(C)C(=O)[C@H](Cc2ccccc2)NC(=O)[C@@H](CCCNC(=N)N)NC(=O)[C@H](CCCNC(=N)N)NC(=O)[C@H]([C@@H](C)CC)NC1=O [compound 236] ({CH2CO}-AD[NMePhe(3-Cl)]V[NMeW]NYY(Me)IIR[dR]F[NMeY]CGGGGSSC-NH2; thioether N-15)
Kd: 100 to 1000 nM

Kd [1]: 1 to 100 nM
SMILES: CC[C@H](C)[C@@H]1NC(=O)[C@H](Cc2ccc(O)cc2)NC(=O)[C@H](Cc2ccc(O)cc2)NC(=O)[C@H](CC(N)=O)NC(=O)[C@H](Cc2c[nH]c3ccccc23)NC(=O)[C@H](C(C)C)NC(=O)[C@H](Cc2ccc(OC)cc2)N(C)C(=O)[C@H](C(C)C)NC(=O)[C@H](C)NC(=O)CSC[C@@H](C(=O)NCCOCCOCCOCCOCCOCCOCCOCCOCCOCCOCCOCCOCCC(N)=O)NC(=O)[C@H](Cc2ccc(O)cc2)N(C)C(=O)[C@H](Cc2ccc(O)cc2)NC(=O)[C@H](CCCNC(=N)N)NC(=O)[C@H](CCCNC(=N)N)NC(=O)[C@H]([C@@H](C)CC)NC1=O [compound 136] ({CH2CO}-AV[NMeY](Me)VWNYYIIRRY[NMeY]C[PEG12]-NH2; thioether N-15)

Kd [2]: 100 to 1000 nM
SMILES: CC[C@H](C)[C@@H]1NC(=O)[C@H](Cc2ccc(OC)cc2)NC(=O)[C@H](Cc2ccc(O)cc2)NC(=O)[C@H](CC(N)=O)NC(=O)[C@H](Cc2c[nH]c3ccccc23)N(C)C(=O)[C@H](C(C)C)NC(=O)[C@H](Cc2cccc(Cl)c2)N(C)C(=O)[C@H](C(C)C)NC(=O)[C@H](C)NC(=O)CSC[C@@H](C(N)=O)NC(=O)[C@H](Cc2ccc(O)cc2)N(C)C(=O)[C@H](Cc2ccccc2)NC(=O)[C@@H](C)NC(=O)[C@H](CCCCN)N(C)C(=O)[C@H]([C@@H](C)CC)NC1=O [compound 378]

Kd [2]: 1 to 100 nM
SMILES: CC[C@H](C)[C@@H]1NC(=O)[C@H](Cc2ccc(OC)cc2)NC(=O)[C@H](Cc2ccc(O)cc2)NC(=O)[C@H](CC(N)=O)NC(=O)[C@H](Cc2c[nH]c3ccccc23)N(C)C(=O)[C@H](C(C)C)NC(=O)[C@H](Cc2cccc(Cl)c2)N(C)C(=O)[C@H](C(C)C)NC(=O)[C@H](C)NC(=O)CSC[C@@H](C(=O)NCCOCCOCCOCCOCCC(N)=O)NC(=O)[C@H](Cc2ccc(O)cc2)N(C)C(=O)[C@H](Cc2ccccc2)NC(=O)[C@@H](CCCNC(=N)N)NC(=O)[C@H](CN)NC(=O)[C@H]([C@@H](C)CC)NC1=O [compound 365] ({CH2CO}-AV[NMePhe(3-Cl)]V[NMeW]NYY(Me)II[Dap][dR]F[NMeY]C[PEG4]-NH2; thioether N-15)

Kd (binding to hTfR by SPR, Table 2 peptides, read-out: KD value (SPR) class): 1 to 100 nM
SMILES: CC[C@H](C)[C@@H]1NC(=O)[C@H](Cc2ccc(O)cc2)NC(=O)[C@H](Cc2ccc(O)cc2)NC(=O)[C@H](CC(N)=O)NC(=O)[C@H](Cc2c[nH]c3ccccc23)NC(=O)[C@H](C(C)C)NC(=O)[C@H](Cc2ccccc2)NC(=O)[C@H](C(C)C)NC(=O)[C@H](C)NC(=O)CSC[C@@H](C(N)=O)NC(=O)[C@H](Cc2ccc(O)cc2)N(C)C(=O)[C@H](Cc2ccc(O)cc2)NC(=O)[C@H](C)NC(=O)[C@H](CCCNC(=N)N)NC(=O)[C@H]([C@@H](C)CC)NC1=O [compound 256]

SMILES: CC[C@H](C)[C@@H]1NC(=O)[C@H](Cc2ccc(O)cc2)NC(=O)[C@H](Cc2ccc(O)cc2)NC(=O)[C@H](CC(N)=O)NC(=O)[C@H](Cc2c[nH]c3ccccc23)N(C)C(=O)[C@H](C(C)C)NC(=O)[C@H](Cc2ccccc2)N(C)C(=O)[C@H](C(C)C)NC(=O)[C@H](C)NC(=O)CSC[C@@H](C(=O)NCCOCCOCCOCCOCCOCCOCCOCCOCCOCCOCCOCCOCCC(=O)N[C@@H](CCCCNC(=O)C2CCC(CN3C(=O)C=CC3=O)CC2)C(N)=O)NC(=O)[C@H](Cc2ccc(O)cc2)N(C)C(=O)[C@H](Cc2ccc(O)cc2)NC(=O)[C@H](CCCNC(=N)N)NC(=O)[C@H](CCCNC(=N)N)NC(=O)[C@H]([C@@H](C)CC)NC1=O (some centres unmarked) [compound 183]
Kd [3]: 1 to 100 nM

Kd [3]: 1 to 100 nM
SMILES: CC[C@H](C)[C@@H]1NC(=O)[C@H](Cc2ccc(O)cc2)NC(=O)[C@H](Cc2ccc(O)cc2)NC(=O)[C@H](CC(N)=O)NC(=O)[C@H](Cc2c[nH]c3ccccc23)NC(=O)[C@H](C(C)C)NC(=O)[C@H](Cc2ccccc2)N(C)C(=O)[C@H](C(C)C)NC(=O)[C@H](C)NC(=O)CSC[C@@H](C(=O)NCC(=O)N[C@@H](CCCCNC(=O)C2CCC(CN3C(=O)C=CC3=O)CC2)C(N)=O)NC(=O)[C@H](Cc2ccc(O)cc2)N(C)C(=O)[C@H](Cc2ccc(O)cc2)NC(=O)[C@H](CCCNC(=N)N)NC(=O)[C@H](CCCNC(=N)N)NC(=O)[C@H]([C@@H](C)CC)NC1=O (some centres unmarked) [compound 188]

Kd [3]: 1 to 100 nM
SMILES: CC[C@H](C)[C@@H]1NC(=O)[C@H](Cc2ccc(O)cc2)NC(=O)[C@H](Cc2ccc(O)cc2)NC(=O)[C@H](CC(N)=O)NC(=O)[C@H](Cc2c[nH]c3ccccc23)N(C)C(=O)[C@H](C(C)C)NC(=O)[C@H](Cc2ccccc2)NC(=O)[C@H](C(C)C)NC(=O)[C@H](C)NC(=O)CSC[C@@H](C(=O)NCC(=O)N[C@@H](CO)C(=O)N[C@@H](CO)C(=O)NCC(=O)N[C@@H](CO)C(=O)N[C@@H](CO)C(=O)N[C@@H](CCCCNC(=O)C2CCC(CN3C(=O)C=CC3=O)CC2)C(N)=O)NC(=O)[C@H](Cc2ccc(O)cc2)N(C)C(=O)[C@H](Cc2ccc(O)cc2)NC(=O)[C@H](CCCNC(=N)N)NC(=O)[C@H](CCCNC(=N)N)NC(=O)[C@H]([C@@H](C)CC)NC1=O (some centres unmarked) [compound 197]

Kd [1]: 1 to 100 nM
SMILES: CC[C@H](C)[C@@H]1NC(=O)[C@H](Cc2ccc(O)cc2)NC(=O)[C@H](Cc2ccc(O)cc2)NC(=O)[C@H](CC(N)=O)NC(=O)[C@H](Cc2c[nH]c3ccccc23)NC(=O)[C@H](C(C)C)NC(=O)[C@H](Cc2ccccc2)N(C)C(=O)[C@H](C(C)C)NC(=O)[C@H](C)NC(=O)CSC[C@@H](C(=O)NCCOCCOCCOCCOCCOCCOCCOCCOCCOCCOCCOCCOCCC(N)=O)NC(=O)[C@H](Cc2ccc(O)cc2)N(C)C(=O)[C@H](Cc2ccc(O)cc2)NC(=O)[C@H](CCCNC(=N)N)NC(=O)[C@H](CCCNC(=N)N)NC(=O)[C@H](Cc2ccc(O)cc2)NC1=O [compound 115] ({CH2CO}-AV[NMeF]VWNYYIYRRY[NMeY]C[PEG12]-NH2; thioether N-15)

Kd [4]: 1 to 100 nM
SMILES: CC[C@H](C)[C@@H]1NC(=O)[C@H](Cc2ccc(O)cc2)NC(=O)[C@H](Cc2ccc(O)cc2)NC(=O)[C@H](CC(N)=O)NC(=O)[C@H](Cc2c[nH]c3ccccc23)N(C)C(=O)[C@H](C(C)C)NC(=O)[C@H](Cc2cc(Cl)cc(Cl)c2)N(C)C(=O)[C@H](C(C)C)NC(=O)[C@H](C)NC(=O)CSC[C@@H](C(N)=O)NC(=O)[C@H](Cc2ccc(O)cc2)N(C)C(=O)[C@H](Cc2ccccc2)NC(=O)[C@@H](CCCNC(=N)N)NC(=O)[C@H](CCCNC(=N)N)NC(=O)[C@H]([C@@H](C)CC)NC1=O [compound 302]

Kd [4]: 1 to 100 nM
SMILES: CC[C@@H]1NC(=O)[C@H]([C@@H](C)CC)NC(=O)[C@H](Cc2ccc(OC)cc2)NC(=O)[C@H](Cc2ccc(O)cc2)NC(=O)[C@H](CC(N)=O)NC(=O)[C@H](Cc2c[nH]c3ccccc23)N(C)C(=O)[C@H](C(C)C)NC(=O)[C@H](Cc2cccc(Cl)c2)N(C)C(=O)[C@H](C(C)C)NC(=O)[C@H](C)NC(=O)CSC[C@@H](C(=O)NCCOCCOCCOCCOCCC(N)=O)NC(=O)[C@H](Cc2ccc(O)cc2)N(C)C(=O)[C@H](Cc2ccccc2)NC(=O)[C@@H](CCCNC(=N)N)NC(=O)[C@H](CCCNC(=N)N)NC1=O [compound 325] ({CH2CO}-AV[NMePhe(3-Cl)]V[NMeW]NYY(Me)I[Abu]R[dR]F[NMeY]C[PEG4]-NH2; thioether N-15)

Kd [5]: > 1000 nM
SMILES: CC[C@H](C)[C@@H]1NC(=O)[C@H](Cc2ccc(OC)cc2)NC(=O)[C@H](Cc2ccc(O)cc2)NC(=O)[C@H](CC(N)=O)NC(=O)[C@H](Cc2c[nH]c3ccccc23)N(C)C(=O)[C@H](C(C)C)NC(=O)[C@H](Cc2cccc(Cl)c2)N(C)C(=O)[C@H](C(C)C)NC(=O)[C@H](C)N(C)C(=O)CSC[C@@H](C(N)=O)NC(=O)[C@H](Cc2ccc(O)cc2)N(C)C(=O)[C@H](Cc2ccccc2)NC(=O)[C@@H](C)NC(=O)[C@H](CCCNC(=N)N)NC(=O)[C@H]([C@@H](C)CC)NC1=O [compound 216]

Kd [5]: 1 to 100 nM
SMILES: CC[C@H](C)[C@@H]1NC(=O)[C@H](Cc2ccc(OC)cc2)NC(=O)[C@H](Cc2ccc(O)cc2)NC(=O)[C@H](CC(N)=O)NC(=O)[C@H](Cc2c[nH]c3ccccc23)N(C)C(=O)[C@H](C(C)C)NC(=O)[C@H](Cc2cccc(Cl)c2)N(C)C(=O)[C@H](CCC(=O)O)NC(=O)[C@H](C)NC(=O)CSC[C@@H](C(N)=O)NC(=O)[C@H](Cc2ccc(O)cc2)N(C)C(=O)[C@H](Cc2ccccc2)NC(=O)[C@H](CCCCN)NC(=O)[C@H](C)NC(=O)[C@H]([C@@H](C)CC)NC1=O [compound 225] ({CH2CO}-AE[NMePhe(3-Cl)]V[NMeW]NYY(Me)IIAKF[NMeY]C-NH2; thioether N-15)

Kd [2]: < 1 nM
SMILES: CC[C@H](C)[C@@H]1NC(=O)[C@H](Cc2ccc(OC)cc2)NC(=O)[C@H](Cc2ccc(O)cc2)NC(=O)[C@H](CC(N)=O)NC(=O)[C@H](Cc2c[nH]c3ccccc23)N(C)C(=O)[C@H](C(C)C)NC(=O)[C@H](Cc2cccc(Cl)c2)N(C)C(=O)[C@H](C(C)C)NC(=O)[C@H](C)NC(=O)CSC[C@@H](C(=O)NCCOCCOCCOCCOCCC(N)=O)NC(=O)[C@H](Cc2ccc(O)cc2)N(C)C(=O)[C@H](Cc2ccccc2)NC(=O)[C@@H](CCCNC(=N)N)NC(=O)C(C)(C)NC(=O)[C@H]([C@@H](C)CC)NC1=O [compound 354]

From US20230203098A1, “HUMAN TRANSFERRIN RECEPTOR BINDING PEPTIDE” (priority 2020, published 2023)
